From patent US6984656B2, “Core modified porphyrins” (priority 2001, dated 2006)

Key:
Colo-26 cells = assay: Dark and light-induced toxicity toward Colo-26 cells in culture; type: cell-based, murine
Protocol: In order to compare relative phototoxicity, the core-modified porphyrins of Table 1 were evaluated in culture for dark and light-induced toxicities toward Colo-26 cells, a murine colon carcinoma cell line.

[1] = Quantum yield for the generation of singlet oxygen; type: physicochemical; details: aqueous solution
[2] = Rate of photobleaching in phosphate-buffered saline; type: physicochemical; details: PBS; 570-750 nm light at 500 mW cm^−2; constant initial absorbance
From the text: One limitation of PDT dosimetry is the rate of photobleaching of the photosensitizer, which can be problematic with Photofrin® and even more problematic with the bacteriochlorins and the chlorins (such as HPPH).

MCF-7 cells = assay: Photosensitizer uptake in cultured MCF-7 cells by fluorescence; type: cell-based; details: 10 μM and 100 μM, 24 h
Protocol: To establish baseline fluorescence, control cells incubated with MEM not containing either photosensitizer were used. […] A time course to determine when the fluorescence approached its maximum was performed for DH-82 and Photofrin®.
To determine the final intracellular concentrations of each sensitizer, cells in 96-well plates were incubated with sensitizer for 24 h. Detection of fluorescence in sensitizer-treated cells was made directly in the wells of the 96-well plate using the appropriate excitation and emission wavelengths.
Photosensitizer uptake experiments are conducted with fluorescent sensitizers. First, cells will be removed from 100-mm dishes by trypsinization (see above) and seeded on 96-well plates at 5×10^4 cells/well in 200 μL of MEM. […] To establish baseline fluorescence, control cells incubated with MEM not containing any photosensitizer are used. […] Fluorescence of the cells is determined using a Spectramax Gemini spectrofluorimeter (Molecular Devices, Sunnyvale, Calif.). Sensitizers will be compared according to the rate at which the fluorescence approached its maximum final emission per 10^5 cells as well as by the final sensitizer concentrations in cells. The fluorescence values calculated for 10^5 cells will be compared to a standard curve of fluorescence obtained from known concentrations of each sensitizer.

cytochrome c oxidase = assay: Whole cell mitochondrial cytochrome c oxidase activity in R3230AC cells; type: cell-based, rat
Protocol: In parallel experiments, mitochondrial cytochrome c oxidase activity was determined after exposure of R3230AC cells to the same porphyrins either in the dark or 24 h after light exposure (FIG. 8b). […] In contrast, MA-99 inhibited whole cell cytochrome c oxidase activity by 60% after a 24-h incubation period in R3230AC cells. […] Cytochrome c oxidase activity in R3230AC cells irradiated in the presence of MA-99 was inhibited by 95%, […] in enzyme activity compared to that obtained from cells incubated with MA-99, but not exposed to light.
Determination of the effects of dyes on intracellular mitochondrial cytochrome c oxidase are performed on cultured R3230AC cells. Cultures are seeded at 1×10^5 cells/well on 12-well plates in 1.0 mL MEM (described above). Twenty-four h later, sensitizers are added at concentrations ranging from 10^−4 to 10^−6 M. Cells are incubated in the dark with the sensitizers in MEM for 24 h in a 37° C. incubator. […] Cytochrome c oxidase is measured as above after cell suspensions are thawed and sonicated on ice after 30 s at 10 s bursts using a Branson probe sonifier set at a power of 2. The whole-cell lysate is added to the cytochrome c reaction mixture and results are expressed as the amount of cytochrome c oxidase activity per 10^5 cells.

[3] = Tissue distribution by fluorescence in tumor-bearing BALB/c mice
Protocol: At various times after sensitizer administration, animals were sacrificed and sensitizer levels determined by direct extraction. In tumor-bearing animals (BALB/c mice or female Fischer rats), the concentration of sensitizer was determined by fluorescence spectroscopy where possible. At various time points post-injection of 5 μmol/kg of sensitizer or 90% of the LD10 (whichever is smaller), tissues were removed, weighed, homogenized, and frozen in liquid nitrogen (3-5 animals per time point). The homogenate, after thawing, was taken up in Solvable and the emission from sensitizer was quantified in terms of ng of sensitizer/mg of protein. With non-fluorescent sensitizers, sensitizer content was quantified spectrophotometrically. Distribution ratios were expressed as the uptake or retention of sensitizer in tumor relative to various normal tissues. Intensified digital fluorescence microscopy and/or confocal microscopy on frozen sections of the tumors, which were prepared from samples specified for this purpose, enabled us to assess intratumor sensitizer distributions.

[4] = BALB/c mice with Colo-26 tumors, DH-82 5 mg/kg, MA-99 2.5 mg/kg

## O=C([O-])COc1ccc(-c2c3nc(c(-c4ccc(F)cc4)c4ccc(s4)c(-c4ccc(F)cc4)c4nc(c(-c5ccc(OCC(=O)[O-])cc5)c5ccc2s5)C=C4)C=C3)cc1.[Na+].[Na+] [MA-99]
Colo-26 cells; 4 J cm^−2 of 590-800 nm light, read-out: EC50 against Colo-26 cells
  EC50: 430 nM
Colo-26 cells; Colo-26 cells, 694 nm dye laser for DH-82 and MA-99, 630 nm dye laser for Photofrin®
  phototoxicity relative to Photofrin® with laser excitation (FIG. 4a): significantly greater phototoxicity at lower concentrations than Photofrin®
[1]
  quantum yield for the generation of singlet oxygen φ(^1O2): 0.71 ± 0.02
[2]
  rate of photobleaching (kbleach): 0.16 ± 0.02 × 10^4 s^−1
MCF-7 cells
  final intracellular concentration relative to that for DH-82: approximately 80%
Cytochrome c oxidase; 24-h incubation, dark
  inhibition of whole cell cytochrome c oxidase activity in the dark: 60%
Cytochrome c oxidase; 24 h after 0.9 J cm^−2 of 590-750 nm light, vs control untreated cells
  reduction of cytochrome c oxidase activity after irradiation: 95%
[3]; 2.5 mg (3.2 μmol)/kg of MA-99, Colo-26 tumors
  concentration in tumor 24 h post-injection: 0.65±0.10 μg/mg of protein
[3]; 24 h post-injection
  increase in photosensitizer uptake in tumor relative to compound 6: greater than twenty-fold increase
[3]; [4]
  concentration in skin at 1 h post-injection: 0.09±0.04 μg/mg of protein
  concentration in skin at 24 h post-injection: 0.01±0.01 μg/mg of protein
[3]; liver, kidney, lung, heart, spleen, muscle, skin
  concentration in tumor versus other tissues at 24 h post-injection: higher in the tumor than in the other tissues examined
